“Also recorded” adds a separate entry of the source.
Assays:
[1] = target: T1, CPT-1 (Mus musculus, UniProt P97742); assay: Palmitoyl CoA-driven respiration in permeabilized BMDMs; type: cell-based
T1 construct: endogenous in cells; host or cells: mouse bone marrow-derived macrophages (BMDMs)
T1 sequence (P97742 1-773): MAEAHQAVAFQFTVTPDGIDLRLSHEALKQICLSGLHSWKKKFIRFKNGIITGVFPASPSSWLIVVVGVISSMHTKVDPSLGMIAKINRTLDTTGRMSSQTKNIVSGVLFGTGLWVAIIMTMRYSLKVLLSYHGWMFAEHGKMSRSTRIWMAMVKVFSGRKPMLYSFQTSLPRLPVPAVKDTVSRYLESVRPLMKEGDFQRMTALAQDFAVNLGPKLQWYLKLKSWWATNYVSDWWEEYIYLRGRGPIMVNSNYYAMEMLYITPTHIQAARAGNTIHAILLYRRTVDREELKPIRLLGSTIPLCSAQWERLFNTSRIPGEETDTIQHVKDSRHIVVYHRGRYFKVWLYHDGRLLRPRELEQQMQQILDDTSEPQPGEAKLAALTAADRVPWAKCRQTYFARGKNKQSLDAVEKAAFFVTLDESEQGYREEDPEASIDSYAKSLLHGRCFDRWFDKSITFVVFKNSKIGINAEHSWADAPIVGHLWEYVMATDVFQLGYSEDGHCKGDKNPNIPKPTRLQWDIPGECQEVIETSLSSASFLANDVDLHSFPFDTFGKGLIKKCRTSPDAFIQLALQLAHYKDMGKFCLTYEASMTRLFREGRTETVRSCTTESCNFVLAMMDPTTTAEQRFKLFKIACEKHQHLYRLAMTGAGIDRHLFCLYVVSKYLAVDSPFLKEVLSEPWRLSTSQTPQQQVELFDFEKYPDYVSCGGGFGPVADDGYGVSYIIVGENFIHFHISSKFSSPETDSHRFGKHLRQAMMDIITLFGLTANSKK

[2] = system: BMDMs; assay: Substrate-specific respirometry in permeabilized cells; type: cell-based, mouse; settings: 3 μM etomoxir
[3] = system: M(IL-4) polarization; settings: cited from earlier work
[4] = system: BMDMs; assay: Mass spectrometry-based metabolomics of BMDMs; type: cell-based, mouse; settings: IL-4
Description: Cell. 173, 470-484. Briefly, cells were seeded in 6-well dishes at 1×10^6 cells/well. Cells were treated with IL-4 with and without etomoxir co-treatments (3 μM or 200 μM) similarly to other experiments. To extract intracellular metabolites, cells were briefly rinsed with cold 150 mM ammonium acetate (pH 7.3), followed by addition of 1 ml cold 80% MeOH on dry ice. Cells were detached with cell scrapers and suspensions transferred into centrifuge tubes. After rigorous mixing, the suspension was pelleted by centrifugation (1.3×104 rpm, 4° C.). The supernatant was transferred into a glass vial, metabolites were dried down under vacuum, and resuspended in 50% (v/v) acetonitrile including heavy isotope-labeled amino acids as internal standards (Chen, W. W., Freinkman, E. and Sabatini, D. M. (2017) Rapid immunopurification of mitochondria for metabolite profiling and absolute quantification of matrix metabolites. Nat. Protoc. 12, 2215-2231).
For the mass spectrometry-based analysis of the sample, 5 μL were injected onto a Luna NH2 (150 mm×2 mm, Phenomenex) column. The samples were analyzed with an UltiMate 3000RSLC (Thermo Scientific) coupled to a Q Exactive mass spectrometer (Thermo Scientific). The Q Exactive was run with polarity switching (+3.50 kV/−3.50 kV) in full scan mode with an m/z range of 65-975. Separation was achieved using A) 5 mM NH4AcO (pH 9.9) and B) ACN. The gradient started with 15% A) going to 90% A) over 18 min, followed by an isocratic step for 9 min and reversal to the initial 15% A) for 7 min. Metabolites were quantified with El Maven (v0.2.4) using accurate mass measurements (≤3 ppm) and retention times of pure standards. Data analysis was performed using the statistical language R. For the PCA and clustering analyses, only metabolites with an ANOVA p-value≤0.05 were incorporated. For visualization using heatmaps, metabolites were scaled across samples but not across metabolites. To assess what metabolites contributed the most to a given metabolic phenotype, we calculated the correlation between the loading vector for a given metabolite and the score vector of a given sample for PCs 1 and 2.

[5] = system: respiratory complex I; assay: Respiration in double-permeabilized HepG2 cells; type: biochemical; settings: 100 μM etomoxir
Description: When permeabilized cells were treated with alamethicin to form pores of 3-6 kDa in the mitochondrial inner membrane (“double-permeabilized” cells) and complex I-mediated respiration was directly assessed (FIG. 6F), 10 μg/mL alamethicin was added at 37° C. 15 minutes prior to measurements (Divakaruni, A. S., Andreyev, A. Y., Rogers, G. W., and Murphy, A. N. (2017a) In situ measurements of mitochondrial matrix enzyme activities using plasma and mitochondrial membrane permeabilization agents. Anal. Biochem. 17, 30385-8). Double-permeabilized cells were offered 10 μM cytochrome c in the experimental medium and either 10 mM NADH or 10 mM succinate with 2 μM rotenone to drive respiration.

## CCOC(=O)[C@@]1(CCCCCCOc2ccc(Cl)cc2)CO1 [etomoxir]
[1]; conditional CPT KO BMDMs
  sensitivity of respiration to 3 μM etomoxir: largely absent
[1]; permeabilized BMDMs
  EC50, FCCP-stimulated palmitoyl CoA-driven respiration: nanomolar
  concentration of saturable effect: less than 3 μM
[2]
  palmitoyl CoA oxidation: significant effect
[2]; glutamate/malate, pyruvate/malate, palmitoylcarnitine/malate, succinate/rotenone
  respiration driven by substrates which do not require CPT-1: no effect
[3]; 200 μM etomoxir
  blocking M(IL-4) polarization in Cpt2-/- BMDMs vs WT: equally effective
[3]; etomoxir 10 μM to 100 μM
  IL-4-associated markers / IL-4 response: unaffected; also recorded: fail to affect
[4]; 3 μM etomoxir
  intracellular pantothenate levels: no change
  metabolite profile (PCA): no appreciable change
[4]; 200 μM etomoxir
  intracellular pantothenate levels, increase: three-fold
  metabolite composition (PCA): profound change
[5]
  oxidation of NADH: inhibit oxidation of NADH
